Tests used:
Type in all cases: physicochemical
[1] = Viscosity of the oligomers (Brookfield RVDV-II+ Pro, #28 spindle); conditions: 20 rpm
Description: The viscosity of the oligomers was measured using a Brookfield RVDV-II+ Pro instrument at a temperature of 60°C using a #28 spindle and a rotational speed of 20 rpm. Moreover, the viscosity of the oligomers was measured with a Brookfield RVDV-II+ Pro instrument at a temperature of 25°C using a #28 spindle and a rotational speed of 10 rpm.

[2] = Mechanical performance of cured compositions (tensile strength, modulus, elongation at break, ASTM D638)
Description: These mechanical properties were measured in accordance with ASTM D638.
The mechanical performance tests were performed on compositions comprising the oligomer to be tested mixed with SR506, photoinitiators and/or curing agents, as detailed in Tables 4, 5 and 6 below.
Tests UV + Thermal cure: 80 wt.% of oligomers were mixed with 20 wt. % of SR506. To this mixture were added 3 wt.% of TPO and 1 wt.% of 2E4MZ (based on the total weight of oligomers + SR506).
Tests UV cure: 80 wt.% of oligomers were mixed with 20 wt. % of SR506. To this mixture was added 3 wt.% of TPO (based on the total weight of oligomers + SR506).
Tests Thermal cure: 80 wt.% of oligomers were mixed with 20 wt.% of SR506. To this mixture was added 1 wt.% of 2E4MZ (based on the total weight of oligomers + SR506).

[3] = Storage stability (thermal test, viscosity before/after 48 hours at 65°C, alone or mixed with ADH)
Description: The storage stability tests were performed by placing the oligomer to be tested, alone or mixed with ADH (as a curing agent), at 65°C for 48 hours (thermal test), and measuring their viscosity (cps@60C).

[4] = Epoxy Equivalent Weight (EEW), ASTM D1763-1981
Description: The EEW was measured in accordance with ASTM D1763-1981.

[5] = Refractive index (RX-7000 α, ATAGO)
Description: The refractive index of the oligomers was measured using a RX-7000 α from AT AGO at a temperature of 25°C.

[6] = Thermal Cure, 80 wt.% oligomer + 20 wt.% SR506, then 1 wt.% 2E4MZ
[7] = UV + Thermal Cure, 80 wt.% oligomer + 20 wt.% SR506, then 3 wt.% TPO + 1 wt.% 2E4MZ
[8] = UV Cure, 80 wt.% oligomer + 20 wt.% SR506, then 3 wt.% TPO

Structure (SMILES): C=CC(=O)OCC(O)COc1ccc(C(C)(C)c2ccc(OCC3CO3)cc2)cc1 (stereo not drawn) [Reference]
- Viscosity (60°C) [1]: 2390 mPa.s
- Viscosity (60°C) ([1]; listed as Comparative oligomer): around 2390 mPa.s
- Elongation at break (%) [2, 6]: 2.095%
- Tensile modulus [2, 6]: 2,037
- Tensile strength (Mpa) [2, 6]: 43.33 Mpa
- Elongation at break (%) [2, 7]: 1.86%
- Tensile modulus [2, 7]: 4027
- Tensile strength (Mpa) [2, 7]: 73.39 Mpa
- Elongation at break (%) [2, 8]: 2.32%
- Tensile modulus [2, 8]: 2722
- Tensile strength (Mpa) [2, 8]: 62.9 Mpa
- viscosity change after storage ([3]; 65°C for 48h, not mixed with ADH): no significant viscosity change
- Viscosity (cps@60C) After storage 48h, 65°C ([3]; after storage 48h at 65°C, measured at 60C): 2,450 cps
- Viscosity (cps@60C) Initial ([3]; initial, measured at 60C): 2,390 cps
- state of composition after storage ([3]; mixed with 20 wt.% ADH, 48h at 65°C): becomes gelled
- EEW ([4]; Table 2): 1020 g/ep
- EEW ([4]; synthesis text): 1020 g/eq
- Refractive Index (25°C) [5]: 1.5633
